Measured values reported in US12391685B2, “Inhibitors of RNA-guided nuclease target binding and uses thereof” (THE BROAD INSTITUTE, INC., priority 2018, dated 2025).
Entries after “also recorded” stand apart in the source; their conditions may differ. Read-outs that look alike come from different tables or passages of the source.

Legend:
[1] = molecular target: T1, SpCas9:gRNA interaction (Streptococcus pyogenes serotype M1, UniProt Q99ZW2); assay: Fluorescence polarization assay for SpCas9-gRNA binding; set-up: species or system S. pyogenes; conditions: 10-30 μM
T1 construct: made in house; host or cells: E. coli Rosetta (DE3)
Protocol: FIGS. 10A-10E—(FIG. 10A) Fluorescence polarization assay for detecting SpCas9-gRNA binding. A FITC-labeled crRNA:tracrRNA (25 nM) was titrated with an increasing amount of SpCas9 (7.5-250 nM). Error bars represent ±s.d. across technical replicates (n=3). […] An unlabeled crRNA:tracrRNA (25 nM) was pre-incubated with SpCas9 (25 nM) for 10 min before the addition of FITCcrRNA:tracrRNA (25 nM). Error bars represent ±s.d. across technical replicates (n=3). (FIG. 10C) Fluorescence polarization assay for determining the effect of BRD0539 in the SpCas9-FITCcrRNA:tracrRNA binding. SpCas9 (25 nM) was incubated with the indicated amount of BRD0539 (10-30 μM) for 15 min followed by the addition of FITC-crRNA:tracrRNA (25 nM), which was incubated for 30 min before measuring the FP signal. Error bars represent ±s.d. across technical replicates (n=3). (FIG. 10D) In vitro pulldown assay of SpCas9 by the BRD0539-biotin conjugate from WM793-SpCas9 cell lysate. Streptavidin magnetic beads pre-loaded with either BRD0539-biotin or biotin-azide were incubated with WM793-SpCas9 cell lysate for 12 h before processing the samples for western blotting. BRD0539 (20 μM) was used as a competitor. F and E represent the flow-through and eluent, respectively. […]

[2] = Plasma stability assay; type: in vitro ADME; conditions: 5 μM, 50% human plasma in PBS, 5 h
Protocol: Plasma stability assay. Human plasma stability of the compounds was performed following a reported protocol (Di et al., 2005). BRD0539 (5 μM) was incubated with 50% human plasma (K2 EDTA, BioreclamationIVT) in PBS for 5 h in triplicate. Eucatropine (Aldrich) and verapamil (Acros) were included as the positive and negative control, respectively. The samples were analyzed by UPLC-MS (AB Sciex 4500 with Waters Acquity FTN) with compounds detected by […] mass spectrometer. All integration and analysis were performed using DiscoveryQuant software.

[3] = molecular target: T2, SpCas9 (Streptococcus pyogenes serotype M1, UniProt Q99ZW2); assay: eGFP-disruption assay in U2OS.eGFP.PEST cells; type: cell-based, S. pyogenes; set-up: host or cells: U2OS.eGFP.PEST; conditions: for inhibition of SpCas9 in the eGFP-disruption assay (in words) / inhibition at 15 µM: U2OS.eGFP.PEST cells; for inhibition at 15 µM: screen of structural analogs of BRD7087, 15 μM compound
Outline: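 U2OS.eGFP-PEST cells were nucleofected with SpCas9 plus eGFP Site #1 sgRNA, as plasmids or as preformed RNP (20 pmol). Compound or DMSO was present for 24 h post-transfection. Fixed cells were imaged with a nuclear counterstain, and the % GFP-negative cell population was quantified by automated microscopy.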

[4] = Aggregation by dynamic light scattering in PBS; conditions: 40-100 μM tested
[5] = molecular target: T2, SpCas9; assay: NHEJ assay in HEK293T cells; type: cell-based, S. pyogenes; conditions: 2-10 μM, 24 h
Protocol: NHEJ assay. Approximately 8,000 cells/well were seeded in a 96-well plate 24 h before transient transfection with a total 100 ng of DN66 (mCherry—TAG—GFP reporter) and DN78 (SpCas9 and gRNA) plasmids (1:1) using Lipofectamine 2000 (Life Technologies) (Nguyen et al., 2016b). Transfected cells were incubated with the indicated amount of small molecule or DMSO for 24 h. Cells were then fixed using 4% paraformaldehyde and imaged with the HCS NuclearMask™ Blue Stain (Life Technologies) as the nuclear counter-staining agent. Imaging was performed with an ImageXpress Micro automated microscope (Molecular Devices) at 4× magnification under three excitation channels (blue, green and red) with 9 acquisition sites per well. Images were analyzed in the MetaXpress software to determine the % NHEJ and the data were plotted using GraphPad Prism 6. The Z′-value was calculated following the formula: Z′=1−(3(σ1+σ2))/(|μ1−μ2|) where σ1 and σ2 are the standard deviations of DN66 transfected wells and (DN66+DN78) transfected wells respectively. μ1 and μ2 are the mean % GFP cell population for DN66 transfected wells and (DN66+DN78) transfected wells respectively.

[6] = tested on: U2OS.eGFP.PEST cells and HEK293T cells; assay: Cell viability (ATP content); conditions: 5-20 μM, 24 h

T2 sequence (Q99ZW2 whole entry): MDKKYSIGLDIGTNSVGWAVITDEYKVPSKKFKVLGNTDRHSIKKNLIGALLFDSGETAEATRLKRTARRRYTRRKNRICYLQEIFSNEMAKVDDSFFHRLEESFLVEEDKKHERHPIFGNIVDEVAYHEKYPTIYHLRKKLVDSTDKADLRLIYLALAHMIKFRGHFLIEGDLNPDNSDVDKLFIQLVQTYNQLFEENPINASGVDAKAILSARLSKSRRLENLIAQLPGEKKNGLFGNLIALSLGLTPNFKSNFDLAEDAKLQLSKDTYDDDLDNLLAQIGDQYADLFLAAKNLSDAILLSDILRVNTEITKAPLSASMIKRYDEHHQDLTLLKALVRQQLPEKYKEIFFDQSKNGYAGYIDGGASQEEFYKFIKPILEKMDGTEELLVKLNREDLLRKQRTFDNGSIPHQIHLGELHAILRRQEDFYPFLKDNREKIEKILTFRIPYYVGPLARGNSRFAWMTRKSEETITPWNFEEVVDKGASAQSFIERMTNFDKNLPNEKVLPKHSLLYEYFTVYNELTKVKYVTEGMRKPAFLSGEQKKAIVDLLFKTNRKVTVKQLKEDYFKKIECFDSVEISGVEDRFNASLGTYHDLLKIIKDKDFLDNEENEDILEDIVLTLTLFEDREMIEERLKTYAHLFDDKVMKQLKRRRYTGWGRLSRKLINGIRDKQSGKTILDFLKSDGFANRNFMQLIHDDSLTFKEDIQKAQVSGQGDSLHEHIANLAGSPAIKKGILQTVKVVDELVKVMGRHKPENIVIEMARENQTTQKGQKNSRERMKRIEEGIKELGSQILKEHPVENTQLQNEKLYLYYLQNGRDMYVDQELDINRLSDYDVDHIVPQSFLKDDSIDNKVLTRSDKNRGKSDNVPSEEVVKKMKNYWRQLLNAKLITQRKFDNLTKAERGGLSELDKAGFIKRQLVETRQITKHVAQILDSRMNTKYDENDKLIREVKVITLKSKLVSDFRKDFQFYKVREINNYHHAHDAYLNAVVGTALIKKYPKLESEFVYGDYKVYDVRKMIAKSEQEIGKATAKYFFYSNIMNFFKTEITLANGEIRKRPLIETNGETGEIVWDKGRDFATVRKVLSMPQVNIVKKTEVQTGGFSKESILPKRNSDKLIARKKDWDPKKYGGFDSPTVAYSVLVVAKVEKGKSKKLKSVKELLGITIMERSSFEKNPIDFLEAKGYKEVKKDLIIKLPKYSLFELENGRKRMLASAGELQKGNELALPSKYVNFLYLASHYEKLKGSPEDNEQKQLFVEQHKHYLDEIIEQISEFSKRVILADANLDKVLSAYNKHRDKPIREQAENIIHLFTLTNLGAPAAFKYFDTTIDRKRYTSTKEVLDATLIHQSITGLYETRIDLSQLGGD
T1 sequence (Q99ZW2 whole entry): as above

Structure (SMILES): Cc1ccc(S(=O)(=O)N2CC[C@@H]3[C@H](CO)Nc4ccc(-c5ccccc5F)cc4[C@@H]32)cc1 [BRD0539, ((3aR,4R,9bR)-8-(2-fluorophenyl)-1-tosyl-2,3,3a,4,5,9b-hexahydro-1H-pyrrolo[3,2-c]quinolin-4-yl) methanol]
- effect on SpCas9-FITC-crRNA:tracrRNA polarization signal [1]: did not perturb the polarization signal
- human plasma stability (in words) [2]: stable in human plasma
- EC50 ([3]; EC50, dose-dependent inhibition of SpCas9, U2OS.eGFP.PEST cells, 24 h, tested from 2.8-17.3 μM): 11.5 µM
- inhibition of SpCas9 in the eGFP-disruption assay (in words) [3]: dose-dependent inhibitory activity; also recorded: able to inhibit
- improvement in potency over BRD7087 ([3]; eGFP-disruption assay): 1.8 fold
- EC50 ([3]; eGFP-disruption assay, read-out: apparent EC50): 11 µM
- inhibition at 15 µM ([3]; 24 h, read-out: Average Inhibition activity): 64.2%
- inhibition at 15 µM ([3]; 24 h, read-out: Inhibition activity Rep 1): 61%
- inhibition at 15 µM ([3]; 24 h, read-out: Inhibition activity Rep 2): 67.4%
- potency among the four stereoisomers ([3]; tested from 2.5-15 μM, 24 h): most potent

Structure (SMILES): OC[C@H]1Nc2ccc(-c3cccc(F)c3)cc2[C@H]2[C@@H]1CCN2Cc1ccncc1 [BRD7087, ((3aR,4S,9bR)-8-(3-Fluorophenyl)-1-(pyridin-4-ylmethyl)-2,3,3a,4,5,9b-hexahydro-1H-pyrrolo[3,2-c]quinolin-4-yl) methanol]
- concentration beyond which aggregates form [4]: > 80 µM
- no detectable aggregation up to [4]: ~60 µM
- inhibition of SpCas9 in the NHEJ assay (in words) [5]: dose-dependent inhibition
- cytotoxicity (in words) [6]: non-cytotoxic
- inhibition of SpCas9 in the eGFP-disruption assay (in words) [3]: dose-dependent inhibition
- inhibition at 10 µM ([3]; read-out: inhibition of SpCas9): ~44%
